Data on 6 compounds can be found in patent publication US5620958A, “Bradykinin antagonists” (Coretech, Inc., priority 1994, dated 1997).

Molecules are shown by their SMILES. Like-named read-outs stand apart in the source and are kept apart here. Peptide text beside a SMILES is read from it.

One test has as its target T1, NK2 receptor (Oryctolagus cuniculus, UniProt P79218).
T1 construct: reduce a sustained contractile response produced by neurokinin A by 50%; from tissue; host or cells: contractile tissue preparation (rabbit pulmonary artery per the earlier reading)
T1 sequence (P79218 1-384): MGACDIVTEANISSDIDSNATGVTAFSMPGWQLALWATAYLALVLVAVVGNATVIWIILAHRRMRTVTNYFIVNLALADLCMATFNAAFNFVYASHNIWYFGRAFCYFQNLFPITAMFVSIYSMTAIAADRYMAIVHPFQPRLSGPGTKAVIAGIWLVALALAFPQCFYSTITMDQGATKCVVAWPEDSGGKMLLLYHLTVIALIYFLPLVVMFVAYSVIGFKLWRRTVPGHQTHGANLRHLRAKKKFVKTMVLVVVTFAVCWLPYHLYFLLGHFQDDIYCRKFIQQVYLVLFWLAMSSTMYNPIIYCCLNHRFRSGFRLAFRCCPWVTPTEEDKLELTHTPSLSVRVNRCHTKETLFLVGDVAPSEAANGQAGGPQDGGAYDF
In words: rabbit pulmonary artery, reduction of neurokinin A contraction. Type of test: cell-based. Conditions: Table R; negative log of molar concentration reducing sustained neurokinin A contraction by 50%; read-out: NK2 Rabbit Pulm Art log (converted). How it is done:
The heterodimers thus obtained were tested for activity as heretofore described, the results being shown in Table R. In this Table -log [M] represents the negative log of the molar concentration of the antagonist necessary to reduce a sustained contractile response produced by neurokinin A by 50%.

Test [1] has as its target T2, BK2 receptor (Rattus norvegicus, UniProt P25023).
T2 sequence (P25023 1-396): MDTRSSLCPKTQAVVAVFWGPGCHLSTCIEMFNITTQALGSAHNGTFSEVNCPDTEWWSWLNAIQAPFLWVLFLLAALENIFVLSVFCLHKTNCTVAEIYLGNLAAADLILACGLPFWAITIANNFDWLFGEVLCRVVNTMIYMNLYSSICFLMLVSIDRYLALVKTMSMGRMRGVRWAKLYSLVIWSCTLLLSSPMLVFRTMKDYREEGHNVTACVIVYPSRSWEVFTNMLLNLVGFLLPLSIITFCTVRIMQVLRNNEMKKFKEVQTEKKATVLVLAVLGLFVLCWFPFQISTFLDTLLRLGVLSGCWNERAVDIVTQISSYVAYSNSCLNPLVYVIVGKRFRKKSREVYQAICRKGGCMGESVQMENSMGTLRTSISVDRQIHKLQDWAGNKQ
The test is described as follows: cell-based.

Test [2] concerns the target T3, BK2 receptor (Cavia porcellus, UniProt O70526).
T3 construct: tested for activity on guinea pig ileum in vitro on the standard tissue bath/strain gauge system; from tissue; host or cells: guinea pig ileum
T3 sequence (O70526 1-372): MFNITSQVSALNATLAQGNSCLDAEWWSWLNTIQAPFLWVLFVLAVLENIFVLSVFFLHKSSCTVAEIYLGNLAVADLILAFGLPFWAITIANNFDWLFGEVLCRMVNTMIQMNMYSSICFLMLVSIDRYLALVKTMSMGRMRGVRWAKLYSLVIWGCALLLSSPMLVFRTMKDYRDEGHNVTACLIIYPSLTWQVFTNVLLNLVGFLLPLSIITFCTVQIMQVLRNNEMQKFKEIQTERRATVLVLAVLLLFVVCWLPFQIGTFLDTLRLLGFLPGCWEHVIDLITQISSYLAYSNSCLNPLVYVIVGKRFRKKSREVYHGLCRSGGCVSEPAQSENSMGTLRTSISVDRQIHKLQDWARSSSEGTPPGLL
The test is described as follows: guinea-pig ileum (GPI) in vitro, antagonism of BK. To be noted: Table E. The format is cell-based. The method in brief: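 Isolated guinea-pig ileum in tissue bath with strain-gauge recording; antagonism of bradykinin contractions. Potency expressed as pA2 (Schild method: negative log molar antagonist concentration causing two-fold agonist potency shift); percentage recovery also determined.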

Another test has as its target T4, BK1 receptor (Oryctolagus cuniculus, UniProt P48748).
T4 construct: when administered to an intact animal; from tissue; host or cells: whole rabbit (systemic arterial blood pressure), LPS-pretreated
T4 sequence (P48748 1-352): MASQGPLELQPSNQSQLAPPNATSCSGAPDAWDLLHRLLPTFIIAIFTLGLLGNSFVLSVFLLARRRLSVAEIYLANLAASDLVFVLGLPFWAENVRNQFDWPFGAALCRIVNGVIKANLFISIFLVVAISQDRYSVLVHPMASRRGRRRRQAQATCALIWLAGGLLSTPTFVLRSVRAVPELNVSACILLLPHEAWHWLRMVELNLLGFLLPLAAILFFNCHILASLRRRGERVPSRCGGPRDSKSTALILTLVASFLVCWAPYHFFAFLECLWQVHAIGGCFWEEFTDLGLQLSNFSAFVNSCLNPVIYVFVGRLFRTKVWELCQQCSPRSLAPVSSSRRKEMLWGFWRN
In words: rabbit aorta in vitro, reversal of des-Arg^9 -BK contraction. The format is cell-based. To be noted: for IC50: negative log of molar concentration.

Test [3] deals with T2, BK2 receptor.

With `CC(C)C[C@H](NC(=O)[C@@H](Cc1ccccc1)NC(=O)[C@H](CSC1CC(=O)N(CCCCCCN2C(=O)CC(SC[C@H](NC(=O)[C@@H](Cc3c[nH]c4ccccc34)NC(=O)[C@@H](NC(=O)[C@@H](Cc3c[nH]c4ccccc34)NC(=O)[C@H](Cc3ccc(O)cc3)NC(=O)[C@@H](N)CC(=O)O)C(C)C)C(=O)N[C@@H](CCCNC(=N)N)C(N)=O)C2=O)C1=O)NC(=O)[C@H](Cc1ccccc1)NC(=O)CNC(=O)[C@@H]1C[C@@H](O)CN1C(=O)[C@@H]1CCCN1C(=O)[C@H](CCCNC(=N)N)NC(=O)[C@H](N)CCCNC(=N)N)C(=O)N[C@@H](CCCNC(=N)N)C(=O)O` (some centres unmarked) [CP-0416] (HELM PEPTIDE1{[dR].R.P.[Hyp].G.F.C.[dF].L.R}|PEPTIDE2{D.Y.[dW].V.[dW].C.R.[am]}|CHEM1{[O=C1CC([*:1])C(=O)N1CCCCCCN1C(=O)CC([*:2])C1=O]}$PEPTIDE1,CHEM1,7:R3-1:R1|PEPTIDE2,CHEM1,6:R3-1:R2$$$V2.0; N-terminus assumed), the IC50 on NK2 receptor was 2510 nM. The Kb on BK2 receptor [1] was 2 nM.

For `CC(C)C[C@H](NC(=O)[C@@H](Cc1ccccc1)NC(=O)[C@H](CSC1CC(=O)N(CCCCCCN2C(=O)CC(SC[C@H](NC(=O)[C@H](Cc3ccccc3)NC(=O)CNC(=O)[C@@H]3C[C@@H](O)CN3C(=O)[C@@H]3CCCN3C(=O)[C@H](CCCNC(=N)N)NC(=O)[C@H](N)CCCNC(=N)N)C(=O)N[C@H](Cc3ccccc3)C(=O)N[C@@H](CC(C)C)C(=O)N[C@@H](CCCNC(=N)N)C(=O)O)C2=O)C1=O)NC(=O)[C@H](Cc1ccccc1)NC(=O)CNC(=O)[C@@H]1C[C@@H](O)CN1C(=O)[C@@H]1CCCN1C(=O)[C@H](CCCNC(=N)N)NC(=O)[C@H](N)CCCNC(=N)N)C(=O)N[C@@H](CCCNC(=N)N)C(=O)O` (some centres unmarked) [CP-0127] (HELM PEPTIDE1{[dR].R.P.[Hyp].G.F.C.[dF].L.R}|PEPTIDE2{[dR].R.P.[Hyp].G.F.C.[dF].L.R}|CHEM1{[O=C1CC([*:1])C(=O)N1CCCCCCN1C(=O)CC([*:2])C1=O]}$PEPTIDE1,CHEM1,7:R3-1:R1|PEPTIDE2,CHEM1,7:R3-1:R2$$$V2.0), the “GPI pA2” value at BK2 receptor [2] came to 7.7 ± 0.2. Further, the “BK1 RABBIT AORTA IC50” value at BK1 receptor (Table G, negative log of molar concentration causing 50% reversal of 10^-7 M des-Arg^9 -BK contraction) is on record as “Inactive”. In addition, at BK2 receptor [3] (Table C, rat uterus, P.A. = partial antagonist), the “pA2 DIMER” value was determined as 8.8 ± 0.3. The Kb at BK2 receptor [1] (BK2 RAT UTERUS pA2, Table G) was 3.16 nM; at BK2 receptor [1] (pA2 (UTERUS), Table D, effect of linker length) it was 1.58 nM.

As for `CC(C)C[C@H](NC(=O)[C@@H](Cc1ccccc1)NC(=O)[C@H](CSC1CC(=O)N(CCCCCCN2C(=O)CC(SC[C@H](N)C(=O)N[C@@H](Cc3ccc(O)cc3)C(=O)N[C@H](Cc3c[nH]c4ccccc34)C(=O)N[C@H](C(=O)N[C@H](Cc3c[nH]c4ccccc34)C(=O)N[C@H](Cc3c[nH]c4ccccc34)C(=O)N[C@@H](CCCNC(=N)N)C(N)=O)C(C)C)C2=O)C1=O)NC(=O)[C@H](Cc1ccccc1)NC(=O)CNC(=O)[C@@H]1C[C@@H](O)CN1C(=O)[C@@H]1CCCN1C(=O)[C@H](CCCNC(=N)N)NC(=O)[C@H](N)CCCNC(=N)N)C(=O)N[C@@H](CCCNC(=N)N)C(=O)O` (some centres unmarked) [CP-0411] (HELM PEPTIDE1{[dR].R.P.[Hyp].G.F.C.[dF].L.R}|PEPTIDE2{C.Y.[dW].V.[dW].[dW].R.[am]}|CHEM1{[O=C1CC([*:1])C(=O)N1CCCCCCN1C(=O)CC([*:2])C1=O]}$PEPTIDE1,CHEM1,7:R3-1:R1|PEPTIDE2,CHEM1,1:R3-1:R2$$$V2.0; N-terminus assumed), the IC50 at NK2 receptor was 3160 nM. Also, the Kb at BK2 receptor [1] was 31.6 nM.

For `CC(C)C[C@H](NC(=O)[C@@H](Cc1ccccc1)NC(=O)[C@H](CSC1CC(=O)N(CCCCCCN2C(=O)CC(SC[C@H](NC(=O)[C@@H](Cc3c[nH]c4ccccc34)NC(=O)[C@H](Cc3ccc(O)cc3)NC(=O)[C@@H](N)CC(=O)O)C(=O)N[C@H](Cc3c[nH]c4ccccc34)C(=O)N[C@H](Cc3c[nH]c4ccccc34)C(=O)N[C@@H](CCCNC(=N)N)C(N)=O)C2=O)C1=O)NC(=O)[C@H](Cc1ccccc1)NC(=O)CNC(=O)[C@@H]1C[C@@H](O)CN1C(=O)[C@@H]1CCCN1C(=O)[C@H](CCCNC(=N)N)NC(=O)[C@H](N)CCCNC(=N)N)C(=O)N[C@@H](CCCNC(=N)N)C(=O)O` (some centres unmarked) [CP-0414] (HELM PEPTIDE1{[dR].R.P.[Hyp].G.F.C.[dF].L.R}|PEPTIDE2{D.Y.[dW].C.[dW].[dW].R.[am]}|CHEM1{[O=C1CC([*:1])C(=O)N1CCCCCCN1C(=O)CC([*:2])C1=O]}$PEPTIDE1,CHEM1,7:R3-1:R1|PEPTIDE2,CHEM1,4:R3-1:R2$$$V2.0; N-terminus assumed), on NK2 receptor, the IC50 was 6310 nM. The Kb on BK2 receptor [1] is 15.8 nM.

On to `CC(C)C[C@H](NC(=O)[C@@H]1CCCN1C(=O)[C@H](CO)NC(=O)[C@H](Cc1ccccc1)NC(=O)CNC(=O)[C@@H]1C[C@@H](O)CN1C(=O)[C@@H]1CCCN1C(=O)[C@H](CS)NC(=O)[C@H](N)CCCNC(=N)N)C(=O)O` [CP-0362] (HELM PEPTIDE1{[dR].C.P.[Hyp].G.F.S.P.L}$$$$V2.0; N-terminus and C-terminus assumed), for which, at BK1 receptor (Table K), the IC50 is 1000 nM. For the same compound, at BK2 receptor [3] (Table K), the “BK2 (RAT UTERUS) pA2” value is on record as “Inactive”.

Turning to `CC(C)C[C@H](NC(=O)[C@@H]1CCCN1C(=O)[C@H](CO)NC(=O)[C@H](Cc1cccs1)NC(=O)CNC(=O)[C@@H]1CCCN1C(=O)[C@@H]1CCCN1C(=O)[C@H](CSC1CC(=O)N(CCCCCCN2C(=O)CC(SC[C@H](NC(=O)[C@H](Cc3ccccc3)NC(=O)CNC(=O)[C@@H]3C[C@@H](O)CN3C(=O)[C@@H]3CCCN3C(=O)[C@H](CCCNC(=N)N)NC(=O)[C@H](N)CCCNC(=N)N)C(=O)N[C@H](Cc3ccccc3)C(=O)N[C@@H](CC(C)C)C(=O)N[C@@H](CCCNC(=N)N)C(=O)O)C2=O)C1=O)NC(=O)[C@@H](N)CCCCN)C(=O)O` (some centres unmarked) [CP-0383] (HELM PEPTIDE1{[dR].R.P.[Hyp].G.F.C.[dF].L.R}|PEPTIDE2{K.C.P.P.G.[O=C([C@H](Cc1cccs1)N[*:1])[*:2]].S.P.L}|CHEM1{[O=C1CC([*:1])C(=O)N1CCCCCCN1C(=O)CC([*:2])C1=O]}$PEPTIDE1,CHEM1,7:R3-1:R1|PEPTIDE2,CHEM1,2:R3-1:R2$$$V2.0), at BK1 receptor, the “BK1 antagonism” value is recorded as “BK1 antagonism was retained”. For the same compound, the IC50 at BK1 receptor (Table L) was 15.8 nM. The “activity in the rat uterus BK2 receptor system” value at BK2 receptor [3] was “substantial partial agonism”. In addition, the “BK2 Rat Uterus pA2” value on BK2 receptor [3] (Table L) is listed as “Agonist”.
